Columns and labels:
[1] = molecular target: T1, epidermal growth factor acceptor-tyrosinekinase complex (Homo sapiens, UniProt P00533); experiment: Tyrosinekinase inhibitory activity (A-431 membrane specimen, EGF-stimulated, [γ-32P]ATP); type: biochemical, human (A-431 cell line derived from human cancerous cell); settings: read-out: Inhibition rate (tyrosinekinase)
T1 construct: endogenous in cells; host or cells: A-431 (membrane specimen, not solubilized)
Protocol: Tyrosinekinase inhibitory activity of the compound of the present invention was measured by employing a method for measuring tyrosinekinase activity by G. Carpentor or by S. Cohen et al. [J. Biol. Chem., 254, 4884 (1979); J. Biol. Chem., 257, 1523 (1982)].
Cell line A-431 derived from human cancerous cell was cultured at 37° C. under the condition of 5% CO2 in Dulbecco's modified Eagle medium (made by DAINIPPON PHARMACEUTICAL CO., LTD.) containing 10% fetal bovine serum, 50 μg/ml of streptomycin, 50 IU/ml of penicillin G and 50 μg/ml of canamycin. The obtained cells were treated according to the above Cohen or Graham et al. to give membrane specimen containing epidermal growth factor acceptor-tyrosinekinase complex (hereinafter referred to as "membrane specimen"). The membrane specimen was employed in the following measurement without solubilization.
Sample dissolved in dimethylsulfoxide was added to a mixture of 20 mM of N-2-hydroxyethylpyperadino-N'-2-ethanesulfonate buffer (pH 7.4), 1 mM of MnCl2, 7.5 μg of bovine serum albumin and the membrane specimen (10 μg as protein). After incubation at 0° C. for 5 minutes, 100 ng of epidermal growth factor (hereinafter referred to as "EGF" was added and the mixture was further incubated at 0° C. for 15 minutes. [γ-^32 P]ATP (3000 Ci/mmol, 0.1 μCi) was added to make final volume of 70 μl. After incubation at 0° C. for 15 minutes, 50 μl of the reaction solution was soaked into Wattman 3 MM filter paper and immediately the reaction was stopped by 10% trichloroacetic acid-10 mM sodium pyrophosphate aqueous solution. The filter paper was sufficiently washed with the same solution and then washed with ethanol and dried. Radioactivity present in the filter paper was measured by liquid scintillation counter (A). Similarly, radioactivity was measured in case of the reaction without EGF (B), the reaction without the sample (C), and the reaction without both EGF and the sample (D) as a control.
Tyrosinekinase inhibition rate (%) was calculated by the following equation. [formula]

[2] = test system: antigen-induced anaphylactic shock death; experiment: Protective effect against anaphylactic shock in actively sensitized guinea pigs; type: in vivo, guinea pig (male); settings: Cavia porcellus, oral, 30 minutes before antigen inhalation, survival 90 minutes or more, read-out: Protecting Effect (Number of test animal survivied/Number of test animal) (converted)
Protocol: [III] Protective effect against anaphylactic shock in actively sensitized guinea pigs
Antigen-induced anaphylactic shock death was observed according to John P. Devlin [Pulmonary and Antiallergic Drugs, John Wiley & Sons, 155 (1985)].
Each 100 mg/kg of ovalbumin dissolved in physiological saline was injected into peritoneal cavity and into gluteus of male guinea pigs weighing 250 to 350 g. 3 Days later, the animals were further injected intraperitoneally with ovalbumin (100 mg/kg). Those animals were employed for testing 3 to 4 weeks after first sensitization. Actively sensitized guinea pigs were pretreated subcutaneously with pyrilamine (1 mg/kg, 30 min.) to suppress histamine-dependent response and with propanolol ([…], 10 min.) to enhance the response induced by other than histamine before the antigen.
The animal was placed in a desiccator with a capacity of about 5 l and 0.5% aqueous solution of ovalbumin was inhaled with ultrasonic type nebulizer for five minutes. Anaphylactic shock death was observed and the animals survived for 90 minutes or more after antigen were estimated to be protected. The compounds of the present invention and antiasmatic agent were administered orally 30 minutes before the antigen inhalation. The control received vehicle alone similarly.

[3] = test system: SRS-A biosynthesis or release; experiment: SRS-A biosynthesis or release inhibitory activity (ovalbumin-challenged sensitized guinea pig lung fragments, bioassay on guinea pig ileum); type: cell-based, guinea pig (male Hartley); settings: Cavia porcellus, read-out: Inhibition rate (SRS-A biosynthesis or release)
Protocol: [I] SRS-A biosynthesis or release inhibitory activity
SRS-A biosynthesis or release inhibitory activity was examined according to Koda et al. [Nippon yakurigakkaishi, 66, 194(1970)] and Kono-Watanabe et al. [J. Immunology, 125, 946(1980)].
Male Hartley guinea pigs weighing 350 to 450 g were sensitized by injecting once each 1 ml of an ovalbumin (100 mg/ml) into gluteus and peritoneal cavity. Four weeks after the injection, the animals were killed and then immediately the lung was perfused with cooled Tyrode's solution to remove blood. The lung was chopped into about 2 mm fragments and 500 mg of the fragments were suspended in 4.84 ml of Tyrode's solution, to which 0.01 ml of the test compound dissolved in dimethylsulfoxide (DMSO) was added. After incubation at 37° C. for 10 minutes, 0.15 ml of an ovalbumin (10 mg/ml) was added, followed by incubation at 37° C. for 20 minutes. In control, DMSO was added and the reaction was conducted in the same manner. The reaction mixture was filtered with gauze.
An amount of SRS-A in the filtrate was bioassayed using guinea pig ileum; i.e. the ileum (length: 2 to 3 cm) was suspended in Magnus tube containing aerated Tyrode's solution at 31° C. and, after the plateau of contraction was obtained, an amount of SRS-A in the above filtrate was bioassayed in the presence of 1 μM of atropine and 1 μM of pyrilamine. Inhibition rate (%) was calculated from a contraction in control as 100.

[4] = test system: homologous passive cutaneous anaphylaxis (PCA); experiment: Inhibitory activity against homologous passive cutaneous anaphylaxis (PCA) in rats; type: in vivo, rat (male Wistar); settings: 100 mg/kg, oral, 1 hour before the antigen
Protocol: [II]Inhibitory activity against homologous passive cutaneous anaphylaxis (PCA) in rats
Antiserum was prepared according to I. Mota [Immunology, 7, 681(1964)] and the PCA reaction was conducted according to Maruyama et al. [Nippon yakurigakkaishi, 74, 179(1978)].
(1) Preparation of antiserum
An ovalbumin solution (2 mg/ml) was injected intramuscularly into both thighs of male Wistar rats weighing 200 to 260 g in a volume of 0.5 ml/100 g body weight, and pertussis vaccine (Bordetella pertussis, 2×10^10 /ml, Chibaken Kessei Kenkyujo) was intraperitoneally administered at 1 ml/rat. Twelve days later, blood was taken from posterior aorta under ether anesthesia and antiserum was stored at -80° C.
Group of 4 male Wistar rats weighing 180 to 210 g were employed. Back of the animals was shaved and each 0.05 ml of antiserum (1:32 dilution) was injected intradermally at four sites on the back. After 48 hours, 1 ml of a mixture of ovalbumin (1 mg/ml) and Evans blue (5 mg/ml) was injected intravenously into the tail. 30 Minutes later, the animals were killed under ether anesthesia. The blue-dyed area (mm^2) formed was measured and an inhibition rate(%) was calculated as compared with control.
Test compound suspended in a 2.5% acacia containing 0.2% Tween 80 was administered orally in a volume of 0.5 ml/100 g body weight 1 hour before the antigen. Tranilast was administered orally 30 minutes before the antigen.

T1 sequence (P00533 25-1210): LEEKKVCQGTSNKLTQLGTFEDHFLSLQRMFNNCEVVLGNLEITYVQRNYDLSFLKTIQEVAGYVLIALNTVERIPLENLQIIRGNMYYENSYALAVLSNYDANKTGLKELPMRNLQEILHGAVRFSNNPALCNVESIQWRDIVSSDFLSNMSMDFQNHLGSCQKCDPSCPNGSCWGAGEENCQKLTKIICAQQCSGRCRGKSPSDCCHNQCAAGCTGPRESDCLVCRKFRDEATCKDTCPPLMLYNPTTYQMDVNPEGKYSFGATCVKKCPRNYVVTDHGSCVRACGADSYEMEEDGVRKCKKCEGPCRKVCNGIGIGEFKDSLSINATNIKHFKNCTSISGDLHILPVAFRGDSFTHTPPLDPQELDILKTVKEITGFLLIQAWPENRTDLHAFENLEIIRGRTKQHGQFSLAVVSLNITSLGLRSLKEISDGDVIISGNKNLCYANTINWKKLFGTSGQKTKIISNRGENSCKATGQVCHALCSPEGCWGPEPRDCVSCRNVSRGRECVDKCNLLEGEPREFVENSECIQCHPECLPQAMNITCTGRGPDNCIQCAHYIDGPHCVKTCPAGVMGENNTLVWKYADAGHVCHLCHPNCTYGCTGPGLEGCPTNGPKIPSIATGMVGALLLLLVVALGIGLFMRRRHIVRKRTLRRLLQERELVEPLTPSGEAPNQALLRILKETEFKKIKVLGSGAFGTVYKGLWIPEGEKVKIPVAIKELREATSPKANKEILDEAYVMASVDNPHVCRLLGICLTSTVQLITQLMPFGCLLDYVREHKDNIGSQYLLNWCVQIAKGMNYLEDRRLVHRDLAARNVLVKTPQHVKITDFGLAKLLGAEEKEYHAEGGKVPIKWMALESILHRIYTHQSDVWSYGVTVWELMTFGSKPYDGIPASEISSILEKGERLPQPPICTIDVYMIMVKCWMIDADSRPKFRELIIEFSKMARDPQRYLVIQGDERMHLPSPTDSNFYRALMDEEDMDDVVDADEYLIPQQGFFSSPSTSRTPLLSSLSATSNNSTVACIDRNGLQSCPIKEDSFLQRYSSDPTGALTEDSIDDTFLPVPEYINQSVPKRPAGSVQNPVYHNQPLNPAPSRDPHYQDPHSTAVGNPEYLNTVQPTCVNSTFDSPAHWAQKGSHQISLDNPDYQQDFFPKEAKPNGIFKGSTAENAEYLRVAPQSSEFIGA
T1 sequence (P01132 977-1029 partner limits assumed): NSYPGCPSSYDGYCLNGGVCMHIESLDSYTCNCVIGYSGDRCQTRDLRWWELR

SMILES | inhibition at 10 µM [1] | responders at 100 mg/kg [2] | inhibition at 100 µM [1] | inhibition at 100 µM [3] | Inhibition rate (PCA reaction, blue-dyed area) [4] | responders at 30 mg/kg [2]
COc1cc(C=C2CCNC2=O)cc(CSc2ccc(C)cc2)c1O [XXVIII] | 55% | 25% |  |  |  | 
CCOc1cc(C=C(C#N)C(N)=O)cc(CSc2ccccc2)c1O [I] | 100% | 40% | 100% | 92% | 21% | 
CCOc1cc(C=C(C#N)C(N)=O)cc(CSc2ccccc2)c1OC [XIII] | 31% |  |  |  |  | 50%
O=C1NN(c2ccccc2)C(=O)C1=Cc1cc(O)c(O)c(CSc2ccccc2)c1 [XXXIV] | 96% |  |  |  |  | 50%
CCOc1cc(C=C2CCOC2=O)cc(CSc2ccccc2)c1O [XXIV] | 33% | 20% | 50% | 28% | 26% | 
CCOC(=O)C(=Cc1cc(CSc2ccccc2)c(O)c(OCC)c1)S(C)(=O)=O [XXII] | 64% | 20% | 80% | 27% | 26% | 
CCOc1cc(C=C(C#N)C(N)=O)cc(CSc2cccc(OC)c2)c1O [VIII] | 72% | 25% |  |  |  | 
CCOc1cc(C=C2C(=O)NN(c3ccccc3)C2=O)cc(CSc2ccc(Br)cc2)c1O [XXXIII] | 71% |  |  |  |  | 75%
CCOc1cc(C=C(C#N)C(N)=O)cc(CSc2ccccc2C(=O)OC)c1OC(C)=O [XXI] | 31% | 25% |  |  |  | 
CCOc1cc(C=C(C#N)C(N)=O)cc(CSc2c(F)c(F)c(F)c(F)c2F)c1O [V] | 60% |  |  |  |  | 50%
CCOc1cc(C=C(C#N)C(N)=O)cc(CSCCCc2ccccc2)c1O [VI] | 55% | 25% |  |  |  | 
CCOc1cc(C=C(C#N)C(N)=O)cc(CSc2ccccc2OC)c1O [VII] | 77% |  |  |  |  | 75%
CCCCOc1cc(C=C2C(=O)NN(c3ccccc3)C2=O)cc(CSc2ccccc2)c1O [XXXV] | 100% | 25% |  |  |  | 
CCOc1cc(C=C(C#N)C(N)=O)cc(CSc2ccc([N+](=O)[O-])cc2)c1O [III] | 42% | 25% |  |  |  | 
N#CC(=Cc1cc(O)c(O)c(CSc2ccccc2)c1)C(N)=O [XIX] | 100% | 25% |  |  |  | 
CCOc1cc(C=C(C#N)C(N)=O)cc(CSc2ccc(Cl)cc2)c1O [XIV] | 29% |  |  |  |  | 100%
CCOC(=O)C(=Cc1cc(CSc2ccc(C(C)(C)C)cc2)c(O)c(OCC)c1)S(C)(=O)=O [XXIII] | 40% | 25% |  |  |  | 
Cn1c(=O)c2[nH]cnc2n(C)c1=O [theophylline, reference compound] |  |  |  |  |  | 50%
